1 molecule from patent US12637423B2, “Aziridinyl functional compound” (priority 2020, dated 2026) can be followed below.

For series [1], the system named is Bscl2-GFP mouse embryonic stem (mES) reporter cell line. Kind of series: ToxTracker assay, Bscl2-GFP DNA damage reporter. Type of series: cell-based. As to the method:
(§1) This methodology uses a two step-approach.
(§2) Metabolic was evaluated by addition of S9 liver extract. […] Only GFP expression in intact single cells is determined.

Series [2] has as its system biomarkers Bscl2-GFP and Rtkn-GFP in mES reporter cell lines. Nature of the series: ToxTracker assay, overall genotoxicity conclusion. In kind it is cell-based, mouse. The note with it: Bscl2-GFP and Rtkn-GFP at 10, 25 and 50% cytotoxicity, absence and presence of rat S9. As for the experimental part: as §1, §2
The test system of series [3] is Rtkn-GFP mouse embryonic stem (mES) reporter cell line. Kind of series: ToxTracker assay, Rtkn-GFP DNA damage reporter. In kind it is cell-based. As for the experimental part:
as §1, §2

Where [4] appears, read: with S9 rat liver extract, at 10% cytotoxicity, 3 h exposure, 24 h recovery.
[5] abbreviates: with S9 rat liver extract, at 25% cytotoxicity, 3 h exposure, 24 h recovery.
Where [6] appears, read: with S9 rat liver extract, at 50% cytotoxicity, 3 h exposure, 24 h recovery.
[7] abbreviates: without S9 rat liver extract, at 10% cytotoxicity, 24 h exposure.
Where [8] appears, read: without S9 rat liver extract, at 25% cytotoxicity, 24 h exposure.
Setting [9] is: without S9 rat liver extract, at 50% cytotoxicity, 24 h exposure.

Turning to `C=CC(=O)OCCOC(=O)NCCCCCCn1c(=O)n(CCCCCCNC(=O)OCCOC(=O)C=C)c(=O)n(CCCCCCNC(=O)OC(C)CN2CC2C)c1=O` (stereo not shown) [Compound 1], the “Bscl 2 GFP reporter induction level” value in series [1] (setting [4]) is 1.2 fold; in series [1] (setting [5]) it was 1.2 fold; in series [1] (setting [6]), 1.2 fold; in series [1] (setting [7]) it was 1.0 fold; in series [1] (setting [8]), 1.2 fold; in series [1] (setting [9]), 1.3 fold. In addition, the “Genotoxicity conclusion (ToxTracker)” value in series [2] was “non-genotoxic”. Also, the “Rtkn GFP reporter induction level” value in series [3] (setting [4]), in series [3] (setting [5]), in series [3] (setting [6]), in series [3] (setting [7]), in series [3] (setting [8]) and in series [3] (setting [9]) was 1.0 fold each time.
